# According to US8058264B2, “Pharmaceutical compositions comprising CB1 cannabinoid receptor antagonists and potassium channel openers for the treatment of obesity and related conditions” (Abbott Products GmbH, priority 2004, dated 2011):
# Assays:
# obese patients = conditions: chronic treatment, e.g. over a period of 1 year; cited from earlier work
# fatty Zucker rat = assay: Acute oral glucose tolerance test (OGTT) in the fatty Zucker rat; format: in vivo; conditions: acute administration (over a period of 1 day)
# Kir6.2/SUR1 KATP channel = assay: Opening of the Kir6.2/SUR1 KATP channel; format: biochemical
smiles,measurement,setting,value
"Cc1c(C(=O)NN2CCCCC2)nn(-c2ccc(Cl)cc2Cl)c1-c1ccc(Cl)cc1 [5-(4-chlorophenyl)-1-(2,4-dichlorophenyl)-4-methyl-N-piperidin-1-yl-1H-pyrazole-3-carboxamide]",glucose tolerance and insulin resistance in obese patients,obese patients,improve glucose tolerance and insulin resistance
same,glucose plasma levels in OGTT,fatty Zucker rat,strong increase in glucose plasma levels
same,insulin release in OGTT,fatty Zucker rat,significantly reduced inhibition of insulin release
same,opener activity at the Kir6.2/SUR1 KATP channel,Kir6.2/SUR1 KATP channel,potent opener
